From patent publication US5981494A, “Use of glycosidase inhibitors” (University College London, priority 1997, dated 1999)

Columns and labels:
[1] = β-galactosidase activity against βPNP-Gal; assay type: biochemical; conditions: pH 6.0; α-galactosidase preparations
Excerpt: This was supported by the observation of batch to batch variability and the fact that the stability of the TNF-enhancing activity differed from the αPNP-Gal activity. Although all enzyme preparations were first dialysed and adjusted to the same activity against αPNP-Gal, batches from different sources enhanced to different degrees (as illustrated in FIG. 1). […] Apart from BSA, all preparations contained 3 bands of 33 kD, 29 kD and 27 kD; 28 kD and 36.5 kD isoforms were previously described (4).

[2] = α-galactosidase hydrolysis of p-nitrophenyl-α-D-galactopyranoside (αPNP-Gal); assay type: biochemical
Experimental: (§1) (One of 2 experiments) (A) Rate of reaction of 0.04 U/ml of α-galactosidase at 37° C. with p-nitrophenyl-α-D-galactopyranoside as substrate as determined over the first 3 mins. (B) Malaria toxin from P. yoelii diluted 1/10 and (C) 50 ng/ml of LPS were incubated overnight at 37° C. with 2 U/ml of α-galactosidase,then boiled and tested on macrophages for TNF induction, assayed by ELISA. (Means of duplicates).
The α-galactosidase hydrolysis of p-nitrophenyl-α-D-galactopyranoside (αPNP-Gal) is optimal at pH 6.0 (4, 9) and undetectable at pH 8.0 (9), as we confirmed, but enhancement of TNF-induction by malaria toxin was greatest at pH 8.0 (FIG. 2.). […] The degree of enhancement also varied with the concentration of LPS, and at higher concentrations enhancement was also detectable at pH 6.0.

[3] = system: thioglycollate-induced peritoneal macrophages; assay: TNF induction from thioglycollate-induced peritoneal macrophages (ELISA and L929 cytotoxicity bioassay); assay type: cell-based, murine
Experimental: Serial dilutions of an extract of parasitized RBC which (undiluted) induced 435 ng/ml of TNF as determined by ELISA and 30,400 U/ml in the bioassay were incubated at pH 8.0 at 37° C. overnight with a series of concentrations of α-galactosidase from Sigma or from Oxford Glycosystems, boiled, neutralised and then tested on macrophages for TNF induction by bioassay and ELISA (means of duplicates). The amount of TNF that would have been induced by the original undiluted extract was then calculated.
as §1
Mice bred at University College London ((CBA×Balb/c)F1 or CBA×C57B1) F1) were infected with P. yoelii YM or P. berghei ANKA. Parasitized RBC (1×10^8/ml)in Earle's Balanced Salt Solution (BSS; Life Technologies Ltd, Paisley, U.K.) were incubated at 37° C. overnight, then disrupted by freezing and thawing, digested overnight with 250 μg pronase E (Sigma) per mg of protein (determined by BioRad assay), boiled, treated with 25 μg/ml polymyxin B agarose (Sigma) to eliminate endotoxin, filtered through a 0.2-μm filter (Sartorius AG, Gottingen, Germany) and stored at 4° C. (24). TNF induction from thioglycollate-induced peritoneal macrophages and ELISA assays for murine TNF were described previously (24). Polymyxin B (5 μg/ml) was included in all experiments with malaria toxin to exclude effects from contaminating LPS. A more sensitive one-plate procedure for TNF production and assay was also used (5). Cytotoxicity assays for TNF were done using L929 cells (23). Green coffee bean α-D-galactosidase was obtained from 2 sources (Sigma, Poole, Dorset, UK and Oxford GlycoSystems Ltd, Abingdon, Oxford UK).

With “α-galactosidase: Green coffee bean α-D-galactosidase obtained from Sigma and Oxford GlycoSystems” the “β-galactosidase activity against βPNP-Gal” value [1] was “No β-galactosidase activity was detectable”, the “pH optimum of hydrolysis of αPNP-Gal” value [2] was 6.0 pH and the “hydrolysis of αPNP-Gal at pH 8.0” value ([2]; pH 8.0) was “undetectable”. For the same substance, the “TNF secretion of macrophages pre-treated with enzyme, then stimulated with toxin or LPS” value ([3]; 2 U/ml enzyme for 1 hr at 37° C., then toxin or 2 or 10 ng/ml LPS) was “did not secrete more TNF than untreated cells”, the “TNF induction from macrophages incubated with enzyme only” value ([3]; 2 U/ml enzyme only) was “No TNF was induced” and the “increase in potency of LPS in stimulating the release of TNFα from macrophages” value ([3]; bacterial derived LPS treated with the enzyme) was 10-100 fold. For the same substance, the “enhancement of TNF induction with boiled enzyme” value ([3]; boiled enzyme) was “no enhancement occurred”, the “enhancement of TNF induction by malaria toxin (extracts of infected RBC) pre-treated with enzyme” value ([3]; extracts of RBC infected with P. yoelii or P. berghei) was “Significant increase in TNF-induction” and the “pH of greatest enhancement of TNF-induction by malaria toxin” value ([3]; overnight at 37° C. with 2 U/ml enzyme) was 8.0 pH. The “enhancement of TNF-inducing activity of LPS” value ([3]; similar pH profile to the toxin) was “also enhanced” and the “stability of TNF-enhancing capacity on storage” value ([3]; storage at 4° C.) was “deteriorated”.
